# Test results as given in ChEMBL document CHEMBL1201862, “PubChem BioAssay data set” (2004).
# pIC50: −log10 of the molar value. The source made the active and inactive calls.
# Tests used:
# Mucolipin-3 = molecular target: T1, Mucolipin-3 (Homo sapiens, UniProt Q8TDD5); experiment: Fluorescence counterscreen assay for […] agonists: dose response cell-based high-throughput screening assay to identify agonists of the transient receptor potential channel ML3 (TRPML3). [Related pubchem assays: 1424, 1448 ]; type: functional
# T1 sequence (Q8TDD5 whole entry): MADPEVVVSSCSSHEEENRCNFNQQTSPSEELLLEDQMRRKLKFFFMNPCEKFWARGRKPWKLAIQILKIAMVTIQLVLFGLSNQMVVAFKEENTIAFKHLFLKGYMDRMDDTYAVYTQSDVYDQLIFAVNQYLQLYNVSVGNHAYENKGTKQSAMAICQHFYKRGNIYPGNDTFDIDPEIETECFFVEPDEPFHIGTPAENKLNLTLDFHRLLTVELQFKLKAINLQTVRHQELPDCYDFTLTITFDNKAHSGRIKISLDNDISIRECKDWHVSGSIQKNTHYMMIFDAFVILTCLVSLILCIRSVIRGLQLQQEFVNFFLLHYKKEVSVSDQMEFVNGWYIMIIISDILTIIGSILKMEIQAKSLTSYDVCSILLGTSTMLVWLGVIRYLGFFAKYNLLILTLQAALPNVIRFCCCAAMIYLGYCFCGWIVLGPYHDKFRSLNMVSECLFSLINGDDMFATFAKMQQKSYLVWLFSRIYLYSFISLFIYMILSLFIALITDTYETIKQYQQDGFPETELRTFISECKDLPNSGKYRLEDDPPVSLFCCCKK
# Ion channel NompC = Ion channel NompC (Danio rerio, UniProt Q7T1G6); experiment: Dose response cell-based high-throughput screening assay for agonists of the transient receptor potential channel N1 (TRPN1). [Related pubchem assays (depositor defined):AID1424, AID1448]; type: functional
# [1] = molecular target: UDP-galactopyranose mutase (Mycobacterium tuberculosis, UniProt P9WIQ1); experiment: Inhibitors of Mycobacterium tuberculosis UDP-galactopyranose mutase (UGM) enzyme Measured in Biochemical System Using Plate Reader - 2105-02_Inhibitor_Dose_CherryPick_Activity. [Related pubchem assays (depositor defined):AID504439]
# [2] = molecular target: T2, Heat shock factor protein 1 (Mus musculus, UniProt P38532); experiment: HSF1 potentiators in luciferase reporter cells, confirmation, cell-based, NIH3T3, luminescence, dose retest (AID 435004); type: functional;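 further: stress induced by proteasome inhibitor MG132 added 30 min after compound; luciferase reporter driven by HSF1 response element in NIH3T3 cells; actives raise luminescence as potentiators of the MG132 stress response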
# T2 sequence (P38532 whole entry): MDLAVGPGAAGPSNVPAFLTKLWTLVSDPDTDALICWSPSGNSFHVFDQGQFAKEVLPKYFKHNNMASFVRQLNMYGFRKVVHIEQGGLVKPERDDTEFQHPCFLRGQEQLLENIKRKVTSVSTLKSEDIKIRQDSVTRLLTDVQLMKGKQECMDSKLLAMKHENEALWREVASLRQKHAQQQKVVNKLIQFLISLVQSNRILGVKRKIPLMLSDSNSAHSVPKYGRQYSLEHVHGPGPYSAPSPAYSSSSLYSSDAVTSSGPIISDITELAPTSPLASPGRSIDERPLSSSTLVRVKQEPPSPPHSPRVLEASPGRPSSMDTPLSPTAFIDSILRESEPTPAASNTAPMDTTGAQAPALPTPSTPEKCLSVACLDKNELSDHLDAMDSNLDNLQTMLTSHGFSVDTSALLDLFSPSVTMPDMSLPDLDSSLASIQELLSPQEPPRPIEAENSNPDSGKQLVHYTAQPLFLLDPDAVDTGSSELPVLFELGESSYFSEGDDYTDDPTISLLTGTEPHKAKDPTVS
# cells = type: functional
# Hexokinase HKDC1 = molecular target: T3, Hexokinase HKDC1 (Homo sapiens, UniProt Q2TB90); experiment: HKDC1 hexokinase activators, dose response, biochemical, W721R variant (AID 504730); type: functional
# T3 sequence (Q2TB90 whole entry): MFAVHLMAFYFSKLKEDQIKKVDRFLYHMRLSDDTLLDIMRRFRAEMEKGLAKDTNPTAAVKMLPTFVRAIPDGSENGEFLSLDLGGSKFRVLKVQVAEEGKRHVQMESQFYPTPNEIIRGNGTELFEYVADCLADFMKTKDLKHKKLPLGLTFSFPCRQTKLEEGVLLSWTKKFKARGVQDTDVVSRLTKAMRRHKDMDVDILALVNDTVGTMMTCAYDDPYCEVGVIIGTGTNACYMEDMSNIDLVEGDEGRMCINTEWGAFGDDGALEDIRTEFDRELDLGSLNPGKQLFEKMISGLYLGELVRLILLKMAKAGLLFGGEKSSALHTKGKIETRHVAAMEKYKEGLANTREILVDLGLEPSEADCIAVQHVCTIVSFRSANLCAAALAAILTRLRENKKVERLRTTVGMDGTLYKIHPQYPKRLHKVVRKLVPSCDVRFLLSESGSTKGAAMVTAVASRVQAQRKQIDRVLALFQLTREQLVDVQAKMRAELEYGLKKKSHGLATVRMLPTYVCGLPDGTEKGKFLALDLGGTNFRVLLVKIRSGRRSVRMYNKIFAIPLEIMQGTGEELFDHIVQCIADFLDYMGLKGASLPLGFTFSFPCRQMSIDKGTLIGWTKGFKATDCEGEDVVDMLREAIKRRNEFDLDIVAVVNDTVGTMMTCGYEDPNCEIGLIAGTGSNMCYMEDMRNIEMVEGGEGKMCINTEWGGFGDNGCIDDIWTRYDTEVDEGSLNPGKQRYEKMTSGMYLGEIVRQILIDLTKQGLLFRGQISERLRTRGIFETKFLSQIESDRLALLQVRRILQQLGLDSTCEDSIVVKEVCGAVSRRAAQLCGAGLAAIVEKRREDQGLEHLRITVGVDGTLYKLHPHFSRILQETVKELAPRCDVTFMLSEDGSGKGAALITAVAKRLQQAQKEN
# Hexokinase-1 = Hexokinase-1 (Homo sapiens, UniProt P19367); experiment: hexokinase 1 activators, dose response, selectivity assay for HKDC1 activator project, biochemical (AID 504762); type: functional
# Mu-type opioid receptor = Mu-type opioid receptor (Homo sapiens, UniProt P35372); experiment: HTS Image-Based Screen for Agonists of the MOR Receptor. [Related pubchem assays (depositor defined):AID1777, AID1785, AID1786, AID2133]; type: functional;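 further: imaging of beta-arrestin GFP recruitment into spots after receptor activation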
# [3] = inhibitors of PGC1a acetylation in cells, dose response, cell-based, cherry-picked samples (AID 720514); type: functional;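 further: potency may reflect raised or lowered acetylation signal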
# Beta Lactamase = Beta Lactamase (Pseudomonas aeruginosa, UniProt Q932Y6); experiment: beta-lactamase reporter inhibitor potency, dose response, artefact control for TLR9-MyD88 binding inhibitor project, BLA reporter cells, FRET fluorescence (AID 588341); type: cell-based;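 further: cell based assay in CHO-K1 cells stably expressing beta-lactamase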
# [4] = non-specific cell cytotoxicity, dose response, cytotoxicity control for PAX8 inhibitor project, plate reader, dry powder samples (AID 743021); type: functional, cell-based
# [5] = HepG2 cell cytotoxicity, dose response, cytotoxicity control, plate reader, cherry-pick, antagonist series (AID 743416); type: functional, cell-based
# [6] = molecular target: T4, Delta-type opioid receptor (Homo sapiens, UniProt P41143); experiment: HTS Image-Based Screen for Antagonists of the DOR Receptor. [Related pubchem assays (depositor defined):AID1777, AID1785, AID1786, AID2133]; type: functional
# [7] = cytotoxicity toward NIH3T3 fibroblasts, dose response, counter-screen, cell-based, ATP luminescence, mouse fibroblasts (AID 2010); type: functional;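 further: cells exposed to compound for about 90 hours before reading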
# [8] = inhibitors of intracellular T. cruzi replication, confirmation, NIH3T3 host cells, beta-gal luminescence (AID 2044); type: functional, cell-based;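 further: intracellular parasites grown in NIH/3T3 mouse fibroblasts as host cells; luminescent beta-galactosidase reporter signal from transgenic T. cruzi replicating inside host cells; inhibitors lower the luminescence signal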
# [9] = LGR2 antagonists, dose response, cell-based, HEK293, CRE-luciferase reporter, cherry pick, set 2 (AID 743343); type: functional;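 further: transfected cells were stimulated with diluted bursicon conditioned medium after compound addition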
# [10] = HEK293 cell cytotoxicity, dose response, cytotoxicity control, plate reader, cherry-picked samples (AID 743446); type: functional, cell-based
# [11] = molecular target: T5, Kappa-type opioid receptor (Homo sapiens, UniProt P41145); type: functional
# [12] = molecular target: T4, Delta-type opioid receptor; experiment: HTS Image-Based Screen for Agonists of the DOR Receptor. [Related pubchem assays (depositor defined):AID1777, AID1786, AID2133]; type: functional
# Beta-galactosidase = Beta-galactosidase (Escherichia coli, UniProt Q8VNN2); type: functional
# [13] = inhibitors of SNCA 5'UTR-driven reporter translation, confirmation, H4 neuroglioma cells, luminescence (AID 1988); type: functional, cell-based
# Paired box protein Pax-8 = Paired box protein Pax-8 (Homo sapiens, UniProt Q06710); experiment: inhibitors of PAX8-driven TPO luciferase reporter, dose response, RMG-I cells, cherry-pick (AID 687027); type: functional, cell-based;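 further: luciferase reporter driven by Pax8 target thyroperoxidase promoter measured by SteadyGlo luminescence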
# [14] = inhibitors of firefly luciferase expression or activity, dose response, H4 neuroglioma cells, luminescence (AID 1990); type: functional, cell-based
# [15] = MC4R antagonists, dose response, counter-screen for LGR2 antagonist project, cell-based, plate reader, cherry pick (AID 743444); type: functional;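 further: transfected HEK 293 cells stimulated with alpha-MSH peptide; potency of inhibitors of the alpha-MSH evoked signal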
# CHO = experiment: cytotoxicity in TLR9-MyD88 CHO cells, dose response, cytotoxicity control for TLR9-MyD88 binding inhibitor project, cell-based, luminescence (AID 588339); type: functional, hamster; conditions: Cricetulus griseus;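 further: CHO cells stably coexpressing TLR9 and MyD88 fusions from primary screen; compound exposure lasted 48 hours before viability readout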
# [16] = A549 cell cytotoxicity, dose response, cytotoxicity control, plate reader, cherry-pick, antagonist series (AID 743412); type: functional, cell-based
# [17] = molecular target: T5, Kappa-type opioid receptor; type: functional; remark: listed apart in the source
# [18] = molecular target: G-protein coupled receptor 55 (Homo sapiens, UniProt Q9Y2T6); experiment: SAR Analysis of Selective Antagonists of GPR55 using an Image-Based Assay - Set 4. [Related pubchem assays (depositor defined):AID2013, AID2026]; type: functional;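 further: antagonism of response to 5 µM lysophosphatidylinositol agonist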
# [19] = molecular target: T6, G-protein coupled receptor 35 (Homo sapiens, UniProt Q9HC97); experiment: SAR analysis of Antagonists of the GPR35 Receptor using an Image-Based Assay - Set 6. [Related pubchem assays (depositor defined):AID2013, AID2026]; type: functional
# Cannabinoid receptor 1 [20] = molecular target: T7, Cannabinoid receptor 1 (Homo sapiens, UniProt P21554); experiment: SAR analysis of antagonists of the Cannabinoid Receptor 1 using an Image-Based Assay - Set 4. [Related pubchem assays (depositor defined):AID2013, AID2026]; type: functional
# Cannabinoid receptor 2 [21] = molecular target: T8, Cannabinoid receptor 2 (Homo sapiens, UniProt P34972); experiment: SAR analysis of antagonists of the Cannabinoid Receptor 2 using an Image-Based Assay - Set 3. [Related pubchem assays (depositor defined):AID2013, AID2026]; type: functional
# [22] = molecular target: T6, G-protein coupled receptor 35; experiment: SAR analysis of Agonists of the GPR35 Receptor using an Image-Based Assay - Set 4. [Related pubchem assays (depositor defined):AID2013, AID2026]; type: functional
# Cannabinoid receptor 1 [23] = molecular target: T7, Cannabinoid receptor 1; experiment: SAR analysis of agonists of the Cannabinoid Receptor 1 using an Image-Based Assay - Set 4. [Related pubchem assays (depositor defined):AID2013, AID2026]; type: functional
# Cannabinoid receptor 2 [24] = molecular target: T8, Cannabinoid receptor 2; experiment: SAR analysis of agonists of the Cannabinoid Receptor 2 using an Image-Based Assay - Set 3. [Related pubchem assays (depositor defined):AID2013, AID2026]; type: functional
# [25] = molecular target: T5, Kappa-type opioid receptor; experiment: SAR analysis of small molecule agonists of the kappa opioid receptor via a luminescent beta-arrestin assay - Set 3. [Related pubchem assays (depositor defined):AID1777, AID1785, AID1786, AID1966, AID2133, AID2136, AID2284, AID2500]; type: functional
# [26] = molecular target: Glucose-6-phosphate 1-dehydrogenase (Homo sapiens, UniProt P11413); experiment: human G6PD enzyme inhibitors, dose response, selectivity assay for P. falciparum G6PD inhibitor project, biochemical, fluorescence (AID 504792); type: functional
# T5 sequence (P41145 whole entry): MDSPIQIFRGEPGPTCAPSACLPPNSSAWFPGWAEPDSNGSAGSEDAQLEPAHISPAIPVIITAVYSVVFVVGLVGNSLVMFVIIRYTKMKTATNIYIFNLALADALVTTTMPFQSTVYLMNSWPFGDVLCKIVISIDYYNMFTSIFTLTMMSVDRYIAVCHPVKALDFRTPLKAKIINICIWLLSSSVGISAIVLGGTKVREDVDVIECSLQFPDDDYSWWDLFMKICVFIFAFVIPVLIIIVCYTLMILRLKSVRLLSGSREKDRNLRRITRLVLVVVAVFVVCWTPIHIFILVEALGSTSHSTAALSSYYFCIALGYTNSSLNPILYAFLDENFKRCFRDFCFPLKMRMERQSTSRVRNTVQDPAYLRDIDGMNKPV
# T6 sequence (Q9HC97 whole entry): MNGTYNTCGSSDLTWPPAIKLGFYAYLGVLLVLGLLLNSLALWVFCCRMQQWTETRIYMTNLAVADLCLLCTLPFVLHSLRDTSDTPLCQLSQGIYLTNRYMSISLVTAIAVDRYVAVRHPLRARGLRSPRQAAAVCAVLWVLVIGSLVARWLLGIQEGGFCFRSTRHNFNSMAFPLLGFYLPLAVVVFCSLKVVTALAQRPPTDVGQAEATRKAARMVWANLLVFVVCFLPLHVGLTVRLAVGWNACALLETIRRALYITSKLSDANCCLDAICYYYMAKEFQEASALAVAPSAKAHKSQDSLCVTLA
# T8 sequence (P34972 whole entry): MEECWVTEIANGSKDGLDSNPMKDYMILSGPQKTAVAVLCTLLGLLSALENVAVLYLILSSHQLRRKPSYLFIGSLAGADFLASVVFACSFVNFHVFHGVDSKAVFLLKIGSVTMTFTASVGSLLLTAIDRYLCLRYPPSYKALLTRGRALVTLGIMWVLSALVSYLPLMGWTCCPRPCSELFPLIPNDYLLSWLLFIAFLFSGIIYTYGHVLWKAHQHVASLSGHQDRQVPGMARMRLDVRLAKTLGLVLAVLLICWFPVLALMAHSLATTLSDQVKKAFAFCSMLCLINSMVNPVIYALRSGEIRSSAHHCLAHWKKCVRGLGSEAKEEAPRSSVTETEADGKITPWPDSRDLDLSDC
# T7 sequence (P21554 whole entry): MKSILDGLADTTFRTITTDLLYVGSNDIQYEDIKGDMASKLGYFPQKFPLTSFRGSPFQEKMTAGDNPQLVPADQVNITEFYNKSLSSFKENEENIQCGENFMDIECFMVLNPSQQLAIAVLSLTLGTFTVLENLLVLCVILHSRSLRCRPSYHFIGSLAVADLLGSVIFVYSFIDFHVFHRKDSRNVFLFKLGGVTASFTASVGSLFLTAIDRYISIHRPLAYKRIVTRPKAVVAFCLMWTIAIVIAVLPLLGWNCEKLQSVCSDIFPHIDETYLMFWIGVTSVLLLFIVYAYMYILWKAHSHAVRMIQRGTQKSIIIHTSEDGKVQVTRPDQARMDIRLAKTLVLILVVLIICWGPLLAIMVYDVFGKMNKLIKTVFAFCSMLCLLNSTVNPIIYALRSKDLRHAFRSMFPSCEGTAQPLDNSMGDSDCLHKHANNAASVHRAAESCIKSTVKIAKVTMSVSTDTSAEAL
# T4 sequence (P41143 whole entry): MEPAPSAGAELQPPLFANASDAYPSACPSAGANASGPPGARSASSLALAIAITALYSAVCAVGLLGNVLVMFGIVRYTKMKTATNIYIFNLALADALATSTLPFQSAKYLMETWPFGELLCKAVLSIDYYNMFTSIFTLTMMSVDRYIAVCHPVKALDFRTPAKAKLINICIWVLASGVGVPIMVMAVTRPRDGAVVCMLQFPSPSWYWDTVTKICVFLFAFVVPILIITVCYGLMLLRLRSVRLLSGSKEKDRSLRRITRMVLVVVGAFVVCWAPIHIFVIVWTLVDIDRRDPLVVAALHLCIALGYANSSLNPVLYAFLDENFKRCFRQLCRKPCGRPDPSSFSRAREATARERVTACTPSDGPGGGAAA
# Sequence of Hexokinase-1 (P19367 whole entry): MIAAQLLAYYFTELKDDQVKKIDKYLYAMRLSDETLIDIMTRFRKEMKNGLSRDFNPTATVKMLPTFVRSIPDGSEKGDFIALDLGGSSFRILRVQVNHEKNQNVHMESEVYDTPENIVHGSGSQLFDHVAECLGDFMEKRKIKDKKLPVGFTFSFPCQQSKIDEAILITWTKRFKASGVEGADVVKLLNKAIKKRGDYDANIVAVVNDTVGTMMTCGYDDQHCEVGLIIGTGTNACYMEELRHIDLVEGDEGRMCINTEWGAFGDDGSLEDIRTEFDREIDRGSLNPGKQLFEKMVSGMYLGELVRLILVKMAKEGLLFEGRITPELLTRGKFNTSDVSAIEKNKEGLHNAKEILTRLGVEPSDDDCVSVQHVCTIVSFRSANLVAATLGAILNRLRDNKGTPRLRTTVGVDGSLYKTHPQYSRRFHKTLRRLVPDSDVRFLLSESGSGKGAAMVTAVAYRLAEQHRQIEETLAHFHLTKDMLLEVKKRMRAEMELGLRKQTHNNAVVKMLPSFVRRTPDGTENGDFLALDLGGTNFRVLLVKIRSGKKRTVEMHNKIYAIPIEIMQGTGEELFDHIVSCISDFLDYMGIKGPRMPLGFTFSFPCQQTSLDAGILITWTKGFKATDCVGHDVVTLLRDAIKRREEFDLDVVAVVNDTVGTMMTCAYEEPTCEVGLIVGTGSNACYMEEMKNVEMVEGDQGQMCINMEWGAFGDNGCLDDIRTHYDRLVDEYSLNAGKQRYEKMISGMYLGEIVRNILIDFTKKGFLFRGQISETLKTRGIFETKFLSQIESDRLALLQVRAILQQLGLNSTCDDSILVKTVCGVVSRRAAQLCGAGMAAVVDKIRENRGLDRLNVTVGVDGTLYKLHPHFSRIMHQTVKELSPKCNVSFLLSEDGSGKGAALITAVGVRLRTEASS
# Sequence of G-protein coupled receptor 55 (Q9Y2T6 whole entry): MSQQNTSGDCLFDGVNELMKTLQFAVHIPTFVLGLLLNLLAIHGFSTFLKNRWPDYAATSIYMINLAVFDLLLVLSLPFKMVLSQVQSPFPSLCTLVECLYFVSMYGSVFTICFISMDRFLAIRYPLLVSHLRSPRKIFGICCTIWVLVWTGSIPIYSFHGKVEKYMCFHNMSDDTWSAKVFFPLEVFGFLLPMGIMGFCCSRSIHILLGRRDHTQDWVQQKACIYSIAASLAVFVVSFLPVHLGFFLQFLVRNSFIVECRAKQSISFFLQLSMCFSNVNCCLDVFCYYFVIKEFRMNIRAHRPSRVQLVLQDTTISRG
# Sequence of Mu-type opioid receptor (P35372 whole entry): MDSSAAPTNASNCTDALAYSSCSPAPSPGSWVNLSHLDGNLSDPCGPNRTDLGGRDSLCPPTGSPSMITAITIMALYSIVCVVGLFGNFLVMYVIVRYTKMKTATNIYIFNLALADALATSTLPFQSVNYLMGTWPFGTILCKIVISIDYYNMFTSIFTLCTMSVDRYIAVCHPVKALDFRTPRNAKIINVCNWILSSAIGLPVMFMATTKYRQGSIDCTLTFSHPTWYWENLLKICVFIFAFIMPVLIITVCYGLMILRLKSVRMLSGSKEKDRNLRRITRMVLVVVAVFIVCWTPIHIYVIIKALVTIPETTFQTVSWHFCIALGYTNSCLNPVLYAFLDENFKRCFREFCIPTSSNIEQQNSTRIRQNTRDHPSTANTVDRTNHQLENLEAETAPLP
# Sequence of UDP-galactopyranose mutase (P9WIQ1 whole entry): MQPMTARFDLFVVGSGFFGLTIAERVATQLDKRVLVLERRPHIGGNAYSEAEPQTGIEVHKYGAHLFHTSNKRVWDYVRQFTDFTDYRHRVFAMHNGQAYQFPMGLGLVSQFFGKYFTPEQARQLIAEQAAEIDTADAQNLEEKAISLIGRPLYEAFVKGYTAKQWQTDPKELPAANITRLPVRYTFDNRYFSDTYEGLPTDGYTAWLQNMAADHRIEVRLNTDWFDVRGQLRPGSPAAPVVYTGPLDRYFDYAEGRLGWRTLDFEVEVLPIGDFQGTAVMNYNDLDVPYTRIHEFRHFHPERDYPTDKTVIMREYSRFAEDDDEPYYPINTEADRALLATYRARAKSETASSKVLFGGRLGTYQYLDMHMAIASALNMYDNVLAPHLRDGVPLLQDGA
# Sequence of Paired box protein Pax-8 (Q06710 whole entry): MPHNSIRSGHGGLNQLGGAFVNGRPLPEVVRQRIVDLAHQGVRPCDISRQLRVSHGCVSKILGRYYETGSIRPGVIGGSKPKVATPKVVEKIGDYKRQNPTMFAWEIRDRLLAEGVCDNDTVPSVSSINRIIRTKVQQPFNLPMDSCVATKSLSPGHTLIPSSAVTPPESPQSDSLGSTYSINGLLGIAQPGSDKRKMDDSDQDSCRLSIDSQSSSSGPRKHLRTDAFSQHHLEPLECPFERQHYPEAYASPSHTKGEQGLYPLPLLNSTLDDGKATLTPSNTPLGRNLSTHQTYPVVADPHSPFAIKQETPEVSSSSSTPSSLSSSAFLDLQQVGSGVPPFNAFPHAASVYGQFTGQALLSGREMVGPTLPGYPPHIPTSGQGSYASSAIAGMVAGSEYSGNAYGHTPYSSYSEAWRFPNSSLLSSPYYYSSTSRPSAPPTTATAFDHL
# Sequence of Beta Lactamase (Q932Y6 whole entry): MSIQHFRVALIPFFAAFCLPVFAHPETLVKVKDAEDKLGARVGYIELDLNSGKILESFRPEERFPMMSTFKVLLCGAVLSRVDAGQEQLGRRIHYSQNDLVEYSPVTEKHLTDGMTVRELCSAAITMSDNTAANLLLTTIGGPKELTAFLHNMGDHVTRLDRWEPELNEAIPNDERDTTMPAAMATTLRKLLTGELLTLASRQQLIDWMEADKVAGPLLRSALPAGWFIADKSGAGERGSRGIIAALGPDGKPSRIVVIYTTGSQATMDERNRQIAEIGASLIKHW
smiles,measurement,setting,value
Cc1cc2nc3c(=O)n(CCc4ccccc4)c(=O)[nH]c3nc2cc1N,EC50,Mucolipin-3,6.23 µM (active)
same,EC50,Ion channel NompC,3.55 µM (active)
same,AC50,[1],2.29 µM (active)
same,EC50,[2],> 260 µM (inactive)
CCOC(=O)Cn1c2ccc(F)cc2c2nc(C)sc21,IC50,cells,14.2 µM (active)
same,EC50,Hexokinase HKDC1,59.1 µM (inactive)
same,EC50,Hexokinase-1,56.2 µM (inactive)
S=c1sc2c(Cl)ncnc2n1-c1ccccc1,EC50,Mu-type opioid receptor,> 32 µM (inactive)
same,AC50,[3],2.79 µM (active)
same,IC50,Beta Lactamase,> 49.7 µM (inactive)
same,AC50,[4],60.6 µM (active)
same,AC50,[5],13.2 µM (active)
same,IC50,[6],4.7 µM (active)
same,EC50,[7],14.4 µM (active)
same,EC50,[8],2.26 µM (active)
same,AC50,[9],17.8 µM (active)
same,AC50,[10],8.88 µM (active)
same,IC50,[11],7.27 µM (active)
same,EC50,[12],> 32 µM (inactive)
same,EC50,Beta-galactosidase,> 31.5 µM (inactive)
same,EC50,[13],7.71 µM (active)
same,AC50,Paired box protein Pax-8,7.52 µM (active)
same,EC50,[2],17.6 µM (active)
same,EC50,[14],8.14 µM (active)
same,AC50,[15],24.5 µM (active)
same,IC50,CHO,9.35 µM (active)
same,AC50,[16],8.81 µM (active)
same,pIC50,[17],5.45
Cc1nc(N2CCN(C(=O)c3cccs3)CC2)c2c3c(sc2n1)CCCC3,IC50,[18],4.13 µM (active)
same,IC50,[19],> 32 µM (inactive)
same,IC50,Cannabinoid receptor 1 [20],3.94 µM (active)
same,IC50,Cannabinoid receptor 2 [21],> 32 µM (inactive)
same,EC50,[22],> 32 µM (inactive)
same,EC50,Cannabinoid receptor 1 [23],> 32 µM (inactive)
same,EC50,Cannabinoid receptor 2 [24],> 32 µM (inactive)
Brc1ccc(CSc2nnc(-c3ccccn3)n2Cc2ccccc2)cc1,EC50,[25],4.06 µM (active)
O=C(Nc1ccc(N2CCCC2)cc1)c1cccc(-c2cc3ccccc3oc2=O)c1,IC50,[26],> 80 µM (inactive)
same,EC50,Hexokinase HKDC1,13.6 µM (active)
same,EC50,Hexokinase-1,> 80 µM (inactive)
COc1ccc(-n2cc3c(-c4cccc(Br)c4)nnc(C)c3n2)cc1,IC50,[18],8.04 µM (active)
same,IC50,[19],> 32 µM (inactive)
same,IC50,Cannabinoid receptor 1 [20],0.946 µM (active)
same,IC50,Cannabinoid receptor 2 [21],5.4 µM (active)
same,EC50,[22],> 32 µM (inactive)
same,EC50,Cannabinoid receptor 1 [23],> 32 µM (inactive)
same,EC50,Cannabinoid receptor 2 [24],> 32 µM (inactive)
